Experimental data as given in US12409173B2, “Repurposing FDA-approved drugs as a novel cancer therapeutic avenue through inhibition of PRMT5” (priority 2019, dated 2025).

What was measured:
PRMT5 = biological target: T1, PRMT5 (Homo sapiens, UniProt O14744); assay: AlphaLISA PRMT5 methyltransferase assay (biotin-H4R3 substrate, SAM); type: biochemical; conditions: PRMT5 methyltransferase activity, FIG. 3C; read-out: IC50 binding affinities by AlphaLISA assay
T1 construct: Flag; made in house; host or cells: 293 cells
T1 sequence (O14744 whole entry): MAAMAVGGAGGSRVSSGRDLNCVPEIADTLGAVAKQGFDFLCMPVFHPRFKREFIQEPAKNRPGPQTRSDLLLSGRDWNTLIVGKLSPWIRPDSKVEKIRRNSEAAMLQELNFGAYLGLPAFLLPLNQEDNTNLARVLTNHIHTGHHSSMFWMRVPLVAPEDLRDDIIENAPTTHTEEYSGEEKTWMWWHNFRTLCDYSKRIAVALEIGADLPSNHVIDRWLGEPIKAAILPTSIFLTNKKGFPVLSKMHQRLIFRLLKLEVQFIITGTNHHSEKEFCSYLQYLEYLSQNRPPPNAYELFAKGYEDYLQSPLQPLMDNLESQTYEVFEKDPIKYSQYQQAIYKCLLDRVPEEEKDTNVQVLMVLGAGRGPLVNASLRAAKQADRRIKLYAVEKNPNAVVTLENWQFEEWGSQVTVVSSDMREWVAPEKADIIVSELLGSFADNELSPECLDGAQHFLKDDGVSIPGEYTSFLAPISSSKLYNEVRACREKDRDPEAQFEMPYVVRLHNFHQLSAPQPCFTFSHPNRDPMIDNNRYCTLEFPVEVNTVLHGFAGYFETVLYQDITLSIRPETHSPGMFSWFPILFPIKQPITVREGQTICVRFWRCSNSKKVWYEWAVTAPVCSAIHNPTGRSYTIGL
T1 sequence (Q9BQA1 whole entry partner): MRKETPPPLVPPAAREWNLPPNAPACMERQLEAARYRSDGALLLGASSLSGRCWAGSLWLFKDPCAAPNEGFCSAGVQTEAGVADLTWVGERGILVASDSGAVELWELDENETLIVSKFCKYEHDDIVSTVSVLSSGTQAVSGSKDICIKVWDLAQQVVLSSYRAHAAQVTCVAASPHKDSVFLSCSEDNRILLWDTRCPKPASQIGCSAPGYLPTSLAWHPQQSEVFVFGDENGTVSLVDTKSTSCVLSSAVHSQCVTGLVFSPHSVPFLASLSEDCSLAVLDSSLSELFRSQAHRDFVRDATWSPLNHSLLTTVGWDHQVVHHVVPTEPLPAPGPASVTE
Excerpt: For AlphaLISA HTS: the substrate, histone H4 peptide unmethylated at arginine (R) 3 (unmeH4R3) was purchased from AnaSpec (Fremont, CA). The 23-amino acid H4R3 peptide was biotinylated at its N′ terminus: […]-K(biotin)-NH2 (SEQ ID NO: 1). S-adenosyl methionine (SAM) was used as a methyl group donor (New England Biolabs, Ipswich, MA). Compound libraries comprising of FDA-approved drugs, synthetic and semi-synthetic natural products as well as bioactives were collectively purchased from Analyticon Discovery (Rockville, MD), MilliporeSigma (Burlington, MA) and Microsource Discovery Systems Inc (Gaylordsville, CT). Acceptor beads specific for dimethylated H4R3, Donor beads with a streptavidin tag, assay buffer, OptiPlate™ 384-well white bottom plates, TopSeal™-A film to seal the plates and EnVision® Multilabel Reader were sourced from PerkinElmer (Waltham, MA). […]
A detailed description of optimization of the AlphaLISA HTS screening protocol has already been published previously. […] Alpha signal was then quantified using the EnVision® reader.
To design a drug screen to check for compounds that had the potential to inhibit PRMT5 methyltransferase activity, the AlphaLISA assay was utilized. […] This emitted AlphaLISA signal is directly proportional to the methyltransferase activity of PRMT5, thus allowing for quantification of its enzymatic activity.

[1] = system: PDAC cells (PANC1, MiaPaCa2 and AsPC1); assay: MTT cell viability assay, PDAC cells; type: cell-based; conditions: 4 days
Method: (§1) Cells were grown to 60% density in clear flat-bottom 96-well plates (Corning Inc, Corning, NY) for 24 hours and treated with a range of concentrations of either Clo or Can respectively, followed by incubation for 4 days. 10 μl of MTT dye (Sigma-Aldrich) was added to each well and incubated for 2 hours at 37° C. The media:MTT mixture was then removed and 10 μl DMSO was added per well. Absorbance was measured using Synergy H4 Multi-Mode Reader (BioTek Instruments, Winooski, VT).

[2] = system: CRC cell lines (HT29, HCT116 and DLD1); assay: MTT cell viability assay, CRC cells; type: cell-based; conditions: 4 days
Method: as §1

[3] = system: BC cells (MD-MB-231 and BT20); assay: MTT cell viability assay, BC cells; type: cell-based; conditions: 4 days
Method: as §1

[4] = system: PANC1, HT29 and MDA-MB231 cells; assay: Three-dimensional (3D) colony formation assay; type: cell-based; conditions: increasing concentrations, 72 hours of drug treatment
Method: PANC1 and MDA-MB-231 (1000 cells) as well as HT29 (250 cells) were seeded per well within ultra-low attachment plates (Corning Inc) in media comprising 3% Reduced Growth Factor-Matrigel (BD Biosciences, Franklin Lakes, NJ). Clo and Can were added in a concentration range from 5-100 μM and 5-120 μM respectively after seeding for 48 hours. After 72 hours of drug treatment, the cells were stained using 10% Alamar blue dye (Fisher) and fluorescence was quantified using a Synergy H4 Reader.

[5] = system: PRMT5-mediated R30 dimethylation of p65 (NF-κB); assay: Western blot for symmetric dimethylation of p65 at R30; type: cell-based; conditions: PANC1, HT29 and MDA-MB-231 cells; treated at MTT IC50 values; vs untreated
Method: Primary antibodies for symmetric dimethylation at arginine (R) 30 subunit of p65 (detected by generating a customized polyclonal primary antibody in collaboration with GenScript Inc, Piscataway, NJ) and […] (Sigma-Aldrich) with their corresponding secondary antibodies were used.
PDAC, CRC and BC cells were pelleted post treatment with either Clo or Can in phosphate buffered saline (PBS). Pellets were lysed by overnight incubation at −80° C. as well as addition of lysis buffer [(10 mM Tris-Cl pH 8.0, 1 mM EDTA, 1% Triton X, 0.1% sodium deoxycholate, 0.1% SDS (sodium dodecyl sulfate), 14 mM NaCl, 1 mM phenylmethylsulfonyl fluoride]. Protein concentration for each sample was determined using Protein Assay Reagent (Biorad, Hercules, CA). Equal protein concentrations were run on a 10% SDS-PAGE (polyacrylamide gel electrophoresis) gel and transferred using polyvinylidene fluoride membrane (Thermo Fisher Scientific). Membranes were exposed to respective primary and secondary antibodies at dilutions and times based on manufacturer's instructions. Protein signal was detected using enhanced chemiluminescence (ECL) reagent (PerkinElmer).

NF-κB activation = assay: NF-κB luciferase assay; type: cell-based; conditions: increasing concentrations; PANC1, HT29 and MDA-MB-231 cells; 48 hours
Method: The NF-κB luciferase lentiviral construct pLA-NFκBmCMV-luc-H4-puro (containing five tandem copies of the NF-κB site from the IP10 gene) was introduced in the respective cell lines using Lipofectamine™ LTX Reagent and PLUS Reagents (Thermo Fisher Scientific). Luciferase activity was measured after 48 hours (with or without drug treatment) using Reporter Lysis Buffer kit (Promega, Madison, WI) as per manufacturer's instructions and the Synergy H4 Reader.

[6] = system: IL8 and TNFα mRNA expression; assay: qRT-PCR of NF-κB target genes IL8 and TNFα; type: cell-based; conditions: PANC1, HT29 and MDA-MB-231 cells; 48 hours; vs untreated
Method: Following treatment with either Clo or Can for 48 hours, total RNA was isolated from the respective cell lines using Trizol as described earlier. First strand complementary DNA was generated using SuperScript III First-Strand Synthesis Kit (Invitrogen, Carlsbad, CA). Following this, qPCR was executed using FastStart Universal SYBR Green kit (Roche, Indianapolis, IN).

[7] = system: PANC1, HT29 and MCF7 xenografts; assay: Xenograft tumor growth in NSG mice (PANC1, HT29, MCF7); type: in vivo; conditions: PANC1, HT29 or MCF7 xenografts, 100 mg/kg oral gavage daily
Method: (§2) Male and female NSG mice were obtained from the In Vivo Therapeutics Core at Indiana University School of Medicine. After acclimation for 7 days, NSG mice (5-6 weeks old) were xenografted with Mycoplasma-free PANC1, MCF7 or HT29 cells subcutaneously (1×10^7 PANC1, 3×10^6 MCF7 or 3×10^6 HT29 cells used per mouse in 0.2 ml of a 1:1 mix of serum free DMEM media, or serum free RPMI media and Matrigel). Male mice were xenografted with PANC1 and HT29 cells. Female mice were xenografted with MCF7 cells. 5 mice were randomized in each group when tumor volumes reached ˜50 mm^3. Mice were treated with either vehicle control (10% DMSO, 20% PEG400, 5% Tween 80 and 65% sterile water), 100 mg/kg or 200 mg/kg candesartan cilexetil dissolved in the vehicle, or 100 mg/kg or 200 mg/kg cloperastine dissolved in the vehicle through oral gavage daily. Tumor volumes were measured 4 times per week and body weights were measured twice a week. The study was performed in accordance with the guidelines and standards of the Institutional Animal Care and Use Committee (IACUC)

[8] = design: species or system mice; conditions: mouse, in vivo, po, 100 mg/kg
Method: as §2

| SMILES | IC50 (PRMT5) [µM] | IC50 [1] [µM] | IC50 [2] [µM] | IC50 [3] [µM] | extent of 3D colony formation [4] | dimethylation levels at R30 of p65 [5] | activation of NF-κB (luciferase) (NF-κB activation) | mRNA expression of IL8 and TNFα [6] | tumor sizes over time relative to control mice [7] | body weights over the course of treatment [8] |
| --- | --- | --- | --- | --- | --- | --- | --- | --- | --- | --- |
| CCOc1nc2cccc(C(=O)OC(C)OC(=O)OC3CCCCC3)c2n1Cc1ccc(-c2ccccc2-c2nn[nH]n2)cc1 (centres unmarked) [Can, Candesartan cilexetil] | 33 | ~20 | 15 to 17 | 18 to 20 | marked decrease | reduction in the dimethylation levels at R30 | concurrent decrease | significant decrease | remarkably reduced tumor sizes | body weights remained similar |
| Cl.Clc1ccc(C(OCCN2CCCCC2)c2ccccc2)cc1 (centres unmarked) [Clo, Cloperastine hydrochloride] | 27 | ~30 | 18 to 34 | 26 to 29 | marked decrease | reduction in the dimethylation levels at R30 | concurrent decrease | significant decrease | significantly reduced tumor sizes | body weights remained similar |
